Columns and labels:
[1] = Suspension equilibration of Compound 1 HCl at 20 and 40° C.
Method: The purpose of this panel was to determine if Form A evolves into a supra-ordinate form, the companion panel at 40° C. set-point was in place to detect enantiotropic behavior via different relative proportions in different solvents.
All isolated products, both wet and dry were consistent with Form A at both temperatures.

[2] = assay type: physicochemical
Method: Both samples were maintained at 75% RH at 40° C. and monitored by HPLC at time points t=1 h, 3 h, 24 h, 48 h, 7 d, 2 w, 3 w, 4 w and 5 w.
Under the conditions evaluated during this study, XRPD analysis could not be performed as compound 1 Fumarate turned to an oily residue within 3 h under both conditions.
[…] Both samples were maintained under equilibrium humidity of 75% RH at 40° C. and monitored, initially at hourly and then weekly time points.

[3] = Thermocycling of compound 1 Fumarate; details: computed by software from the powder pattern
Method: Thermocycling in different solvents can promote the formation of alternative polymorphic forms. compound 1·Fumarate was heated and cooled between 20° C. and 75% of the relevant solvent b.p. at 0.5° C./minute, for 5 consecutive cycles; a 10-minute dwell was incorporated at each inflection (refer to Table 63). Thermocycling is ripening technique that encourages particle size enlargement and promotes the evolution of the API into a stable phase. […] The products were analysed both wet and dry to determine if form changes had occurred, all products were consistent with monofumarate Form A (refer to FIGS. 16-19 and FIGS. 88-102).
Compound 1 Fumarate (75 mg, 1 wt) was weighed out in to 4 separate vials and the corresponding solvents (750 ul, 10 vol) from Table were charged.
The suspensions underwent constant amplitude thermocycling at ±0.5° C./min up to 75% of the relevant solvent b.p. and −0.5° C./min down to 20° C. The thermocycle was repeated 5 times (FIGS. 16-19 and 88-102).

[4] = 2-Propanol 5.0 vol, panel at 40° C.
[5] = Acetone 5.0 vol, equilibration at 20° C.
[6] = Acetone 5.0 vol, panel at 40° C.
[7] = Acetone/Water (5% v/v, 0.5 aw) 5.0 vol, equilibration at 20° C.
[8] = Acetonitrile 5.0 vol, panel at 40° C.
[9] = Chlorobenzene 5.0 vol, equilibration at 20° C.
[10] = Chlorobenzene 5.0 vol, panel at 40° C.
[11] = DCM 5.0 vol, equilibration at 20° C.
[12] = EtOAc 5.0 vol, equilibration at 20° C.
[13] = EtOH 5.0 vol, equilibration at 20° C.
[14] = Ethanol 5.0 vol, panel at 40° C.
[15] = Ethyl acetate 5.0 vol, panel at 40° C.
[16] = Ethyl formate 5.0 vol, equilibration at 20° C.
[17] = Ethyl formate 5.0 vol, panel at 40° C.
[18] = Heptane 5.0 vol, equilibration at 20° C.
[19] = Heptane 5.0 vol, panel at 40° C.
[20] = Isopropanol/Water (12% v/v, 0.5 aw) 5.0 vol, equilibration at 20° C.
[21] = Isopropyl acetate 5.0 vol, equilibration at 20° C.
[22] = Isopropyl acetate 5.0 vol, panel at 40° C.
[23] = MEK 5.0 vol, equilibration at 20° C.
[24] = MeCN 5.0 vol, equilibration at 20° C.
[25] = MeOH 5.0 vol, equilibration at 20° C.
[26] = Methanol 5.0 vol, panel at 40° C.
[27] = Methyl acetate 5.0 vol, equilibration at 20° C.
[28] = Methyl acetate 5.0 vol, panel at 40° C.
[29] = Nitromethane 5.0 vol, panel at 40° C.
[30] = TBME 5.0 vol, equilibration at 20° C.
[31] = Toluene 5.0 vol, panel at 40° C.
[32] = Water 5.0 vol, equilibration at 20° C.
[33] = thermocycling in MEK/Heptane (1 to 1)
[34] = thermocycling in Toluene 100.0%

Compound: COc1ccc2c(ccn2C[C@@H](C)N(C)C)c1.Cl [Compound 1 HCl]
- Observations (t = 0 @ 20° C.) ([1]; 2-Propanol 5.0 vol, equilibration at 20° C.): Suspension
- Observations (t = 0 @ 20° C.) [1, 4]: Suspension
- Observations (t = 1 d @ 20° C.) [1, 4]: Suspension
- Observations (t = 0 @ 20° C.) [1, 5]: Suspension
- Observations (t = 1 d @ 20° C.) [1, 5]: Suspension
- Observations (t = 10 d @ 20° C.) [1, 5]: White Paste
- Observations (t = 0 @ 20° C.) [1, 6]: Suspension
- Observations (t = 1 d @ 20° C.) [1, 6]: Suspension
- Observations (t = 10 d @ 20° C.) [1, 6]: Yellow susp.
- Observations (t = 0 @ 20° C.) [1, 7]: Suspension
- Observations (t = 1 d @ 20° C.) [1, 7]: Suspension
- Observations (t = 10 d @ 20° C.) [1, 7]: Pink paste
- Observations (t = 0 @ 20° C.) ([1]; Acetone/Water (5% v/v, 0.5 aw) 5.0 vol, panel at 40° C.): Suspension
- Observations (t = 0 @ 20° C.) [1, 8]: Suspension
- Observations (t = 1 d @ 20° C.) [1, 8]: Suspension
- Observations (t = 0 @ 20° C.) [1, 9]: Suspension
- Observations (t = 1 d @ 20° C.) [1, 9]: Suspension
- Observations (t = 0 @ 20° C.) [1, 10]: Suspension
- Observations (t = 1 d @ 20° C.) [1, 10]: Suspension
- Observations (t = 0 @ 20° C.) [1, 11]: Suspension
- Observations (t = 1 d @ 20° C.) [1, 11]: Suspension
- Observations (t = 10 d @ 20° C.) [1, 11]: Pink paste
- Observations (t = 0 @ 20° C.) ([1]; DCM 5.0 vol, panel at 40° C.): Suspension
- Observations (t = 1 d @ 20° C.) ([1]; DCM 5.0 vol, panel at 40° C.): Suspension
- Observations (t = 0 @ 20° C.) [1, 12]: Suspension
- Observations (t = 1 d @ 20° C.) [1, 12]: Suspension
- Observations (t = 10 d @ 20° C.) [1, 12]: White paste
- Observations (t = 0 @ 20° C.) [1, 13]: Suspension
- Observations (t = 1 d @ 20° C.) [1, 13]: Suspension
- Observations (t = 10 d @ 20° C.) [1, 13]: Pink paste
- Observations (t = 0 @ 20° C.) [1, 14]: Suspension
- Observations (t = 1 d @ 20° C.) [1, 14]: Suspension
- Observations (t = 0 @ 20° C.) ([1]; Ethanol/Water (15% v/v, 0.5 aw) 5.0 vol, equilibration at 20° C.): Suspension
- Observations (t = 0 @ 20° C.) [1, 15]: Suspension
- Observations (t = 1 d @ 20° C.) [1, 15]: Suspension
- Observations (t = 0 @ 20° C.) [1, 16]: Suspension
- Observations (t = 1 d @ 20° C.) [1, 16]: Suspension
- Observations (t = 0 @ 20° C.) [1, 17]: Suspension
- Observations (t = 1 d @ 20° C.) [1, 17]: Suspension
- Observations (t = 0 @ 20° C.) [1, 18]: Suspension
- Observations (t = 1 d @ 20° C.) [1, 18]: Suspension
- Observations (t = 0 @ 20° C.) [1, 19]: Suspension
- Observations (t = 1 d @ 20° C.) [1, 19]: Suspension
- Observations (t = 0 @ 20° C.) [1, 20]: Suspension
- Observations (t = 1 d @ 20° C.) [1, 20]: Partial
- Observations (t = 0 @ 20° C.) ([1]; Isopropanol/Water (12% v/v, 0.5 aw) 5.0 vol, panel at 40° C.): Suspension
- Observations (t = 0 @ 20° C.) [1, 21]: Suspension
- Observations (t = 1 d @ 20° C.) [1, 21]: Suspension
- Observations (t = 0 @ 20° C.) [1, 22]: Suspension
- Observations (t = 1 d @ 20° C.) [1, 22]: Suspension
- Observations (t = 0 @ 20° C.) [1, 23]: Suspension
- Observations (t = 1 d @ 20° C.) [1, 23]: Suspension
- Observations (t = 0 @ 20° C.) ([1]; MEK 5.0 vol, panel at 40° C.): Suspension
- Observations (t = 1 d @ 20° C.) ([1]; MEK 5.0 vol, panel at 40° C.): Suspension
- Observations (t = 0 @ 20° C.) [1, 24]: Suspension
- Observations (t = 1 d @ 20° C.) [1, 24]: Suspension
- Observations (t = 10 d @ 20° C.) [1, 24]: White Paste
- Observations (t = 0 @ 20° C.) [1, 25]: Suspension
- Observations (t = 1 d @ 20° C.) [1, 25]: Suspension
- Observations (t = 0 @ 20° C.) ([1]; MeTHE 5.0 vol, equilibration at 20° C.): Suspension
- Observations (t = 0 @ 20° C.) ([1]; MeTHF 5.0 vol, panel at 40° C.): Suspension
- Observations (t = 1 d @ 20° C.) ([1]; MeTHF 5.0 vol, panel at 40° C.): Suspension
- Observations (t = 0 @ 20° C.) [1, 26]: Suspension
- Observations (t = 1 d @ 20° C.) [1, 26]: Suspension
- Observations (t = 0 @ 20° C.) [1, 27]: Suspension
- Observations (t = 1 d @ 20° C.) [1, 27]: Suspension
- Observations (t = 0 @ 20° C.) [1, 28]: Suspension
- Observations (t = 1 d @ 20° C.) [1, 28]: Suspension
- Observations (t = 0 @ 20° C.) ([1]; Nitromethane 5.0 vol, equilibration at 20° C.): Suspension
- Observations (t = 0 @ 20° C.) [1, 29]: Suspension
- Observations (t = 1 d @ 20° C.) [1, 29]: Suspension
- Observations (t = 0 @ 20° C.) [1, 30]: Suspension
- Observations (t = 1 d @ 20° C.) [1, 30]: Suspension
- Observations (t = 10 d @ 20° C.) [1, 30]: White Paste
- Observations (t = 0 @ 20° C.) ([1]; THF 5.0 vol, equilibration at 20° C.): Suspension
- Observations (t = 0 @ 20° C.) ([1]; THF 5.0 vol, panel at 40° C.): Suspension
- Observations (t = 1 d @ 20° C.) ([1]; THF 5.0 vol, panel at 40° C.): Suspension
- Observations (t = 0 @ 20° C.) ([1]; Toluene 5.0 vol, equilibration at 20° C.): Suspension
- Observations (t = 0 @ 20° C.) [1, 31]: Suspension
- Observations (t = 1 d @ 20° C.) [1, 31]: Suspension
- Observations (t = 0 @ 20° C.) [1, 32]: Solution
- Observations (t = 1 d @ 20° C.) [1, 32]: Solution
- Observations (t = 0 @ 20° C.) ([1]; Water 5.0 vol, panel at 40° C.): Solution
- Observations (t = 10 d @ 20° C.) ([1]; Water 5.0 vol, panel at 40° C.): Orange susp.
- Observations (t = 0 @ 20° C.) ([1]; tBME 5.0 vol, panel at 40° C.): Suspension
- Observations (t = 1 d @ 20° C.) ([1]; tBME 5.0 vol, panel at 40° C.): Suspension

Compound: COc1ccc2c(ccn2C[C@@H](C)[NH+](C)C)c1.O=C(O)/C=C/C(=O)O [Compound 1 fumarate, (R)-1-(5-methoxy-1H-indol-1-yl)-N,N-dimethylpropan-2-amine fumarate]
- Decrease of chemical purity ([2]; 75% RH/40° C., 5 week time point): approximately 2 % area
- Stability of the amorphous phase ([2]; 75% RH/40° C., 5 weeks): good stability
- Time to turn to an oily residue ([2]; 75% RH/40° C., both conditions (open vial and double bagged)): ≤ 3 h
- Preliminary stability evaluation (hydrate formation or degradation) ([2]; several weeks at 40° C./75% RH): no evidence for hydrate formation or degradation
- XRPD crystallinity (dry, %) [3, 33]: 83.2%
- XRPD crystallinity (wet, %) [3, 33]: 83.4%
- XRPD crystallinity (dry, %) [3, 34]: 68.1%
- XRPD crystallinity (wet, %) [3, 34]: 52.4%
- XRPD crystallinity (dry, %) ([3]; thermocycling in iPAC 100.0%): 82.7%
- XRPD crystallinity (wet, %) ([3]; thermocycling in iPAC 100.0%): 80.7%
- XRPD crystallinity (dry, %) ([3]; thermocycling in tBME 100.0%): 81.0%
- XRPD crystallinity (wet, %) ([3]; thermocycling in tBME 100.0%): 79.0%

— patent US12319652B2, “Salts and solid forms of (R)-1-(5-methoxy-1H-indol-1-yl)-N,N-dimethylpropan-2-amine” (priority 2021, dated 2025)
